# Assays:
# [1] = test system: NIH-Swiss mice; experiment: Forced Swim Test in mice; assay type: in vivo, mouse; settings: i.p.
# Description: In this assay, mechanisms with purported antidepressant-like activity decrease immobility in a brief inescapable forced swim episode.
# The forced-swim test is conducted with both mice (male, NIH-Swiss mice, 20-25 g, Harlan Sprague-Dawley, Indianapolis, Ind.) and rats (male, Sprague-Dawley rats, 250-350 g, Harlan Sprague-Dawley, Indianapolis, Ind.). Mice are placed in clear plastic cylinders (diameter 10 cm; height: 25 cm) filled to 6 cm with 22-25° C. water for six min. The duration of immobility is recorded during the last 4 min of a six-minute trial. Rats are treated similarly, albeit in clear plastic cylinders of larger dimensions (diameter: 18 cm; height: 40 cm) filled with water (22-25° C.) to a depth of 16 cm for 15 min. Additionally, mice receive a single forced swim exposure; rats receive two, 5-min sessions separated by 24 hours (data is recorded only on Day 2). […] Imipramine is used as a positive control for these studies. […] Compounds are in a clear solution. The amount of time spent immobile (defined as movements only necessary to keep the subject's head above water) is the dependent measure and recorded by an observer blinded to the drug treatment of the subjects. Data are analyzed by post-hoc Dunnett's test with alpha level set at 0.05. The mouse version of the forced swim test is most commonly used.
# [2] = target: T1, hPepT1 (Homo sapiens, UniProt P46059); experiment: In Vitro PepT1 GlySar Inhibition Screen and IC50 Determination; assay type: cell-based
# T1 construct: expressed in transfected cells; host or cells: HeLa cells (ATCC), transient transfection with FuGene6
# T1 sequence (P46059 1-708): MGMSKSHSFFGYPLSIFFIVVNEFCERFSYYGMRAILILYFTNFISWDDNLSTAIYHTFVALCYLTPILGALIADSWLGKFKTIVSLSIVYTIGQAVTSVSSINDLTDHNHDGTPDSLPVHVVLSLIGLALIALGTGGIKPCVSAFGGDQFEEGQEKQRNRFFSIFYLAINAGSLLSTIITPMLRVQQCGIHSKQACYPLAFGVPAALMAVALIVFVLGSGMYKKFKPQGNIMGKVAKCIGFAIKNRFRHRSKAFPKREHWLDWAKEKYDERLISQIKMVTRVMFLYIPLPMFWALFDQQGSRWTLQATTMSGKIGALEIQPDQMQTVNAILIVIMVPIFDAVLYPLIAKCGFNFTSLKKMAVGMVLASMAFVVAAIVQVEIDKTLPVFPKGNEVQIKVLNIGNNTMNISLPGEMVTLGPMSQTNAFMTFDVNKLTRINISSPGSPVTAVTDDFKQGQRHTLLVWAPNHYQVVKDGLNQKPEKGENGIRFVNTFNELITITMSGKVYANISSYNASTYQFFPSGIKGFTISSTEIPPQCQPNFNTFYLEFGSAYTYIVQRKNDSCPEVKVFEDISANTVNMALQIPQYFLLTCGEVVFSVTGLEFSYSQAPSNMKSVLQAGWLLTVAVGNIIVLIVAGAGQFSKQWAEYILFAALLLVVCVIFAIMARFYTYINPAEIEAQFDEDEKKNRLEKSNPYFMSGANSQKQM
# Description: PepT1 assays are established to examine the ability of the amino acid prodrug compounds to interact with the intestinal absorption transporter PepT1.
# HeLa cells, […], (American Type Culture Collection) are grown in Hyclone Medium (Invitrogen, Cat# SH30243) containing 10% fetal bovine serum (FBS), 0.1 mM non essential amino acids (NEAA), and 100 units/mL penicillin with 100 μg/mL streptomycin at 37° C. in a 5% CO2 humidified atmosphere. The cell line is used for up to 40 passages and then discarded. Frozen cells in 1 ml vials are thawed in water bath for 1-2 minutes and added to 5 mL of cell medium at 37° C. Each of the T-flasks is provided with 8.5 mL of the fresh medium and 1.5 mL of the cell stock. Cells are passaged twice during a week. This is achieved by rinsing the flasks with 10 mL of phosphate buffered saline-ethylene diaminetetra acetic acid (PBS-EDTA), adding 2 mL of trypsin for 2-5 minutes, to detach the cells, and adding 8 mL of fresh medium to inhibit further activity of trypsin. Each new flask receives a combination of 8.5 mL of fresh medium and 1.5 mL of cell stock, in order to obtain 1:6 cell dilution. Cells are incubated at 37° C., until ready for the uptake study.
# Cells that are 70-80% confluent in the T-flasks are plated 1 day prior to the transfection procedure. The flask with the cell stock is treated with PBS-EDTA and trypsin to detach the cells, and transfection medium is used from this point. Transfection medium consists of Dulbecco's Modified Eagle Medium (DMEM)+NEAA. To each well, 0.5 mL of the cell mixture is added (1.3×10^5 is the desired cell concentration) and the cells are incubated at 37° C. overnight. Twenty four hours before the assay, cells are transfected with PEPT1. Transfection mixture is prepared by mixing 600 μL of serum free transfection medium, 18 μL of FuGene6 (Roche Diagnostics), and 11 μg of the PepT1 DNA. The transfection reagent-DNA complex is incubated for 20 minutes and 24 μL of the reagent-DNA complex is added to each well.
# J. Pharm. Exper Ther. 310:437-445). […] Uptake media consists of 140 mM NaCl, 5.4 mM KCl, 1.8 mM CaCl2, 0.8 mM MgSO4, 5 mM Glucose, 25 mM tris(hydroxymethyl)aminomethane buffer (TRIS). The solution is then brought to pH 6.0 using 2-(N-morpholino)ethanesulfonic acid. The incubation volume is 500 μL and is performed at room temperature for 3 minutes. To stop the uptake at the conclusion of the incubation time, the uptake media is aspirated off of the cell monolayer and 500 μL of ice cold PBS added to the well. The cells are washed 3 times with 500 μL of room temperature PBS without Ca^+2 and Mg^+2. The cells are then lysed with 300 μL of 1% Triton X100 H2O solution. […] A no inhibitor control is established and the percent inhibition of each prodrug is calculated with respect to this control.
# The incubation and sampling procedures are exactly the same as the PepT1 screen described above. […]
# [3] = 1 h, 10 µM, pH 7.4
# Description: Frozen human duodenum intestinal homogenates (1:2 tissue:buffer ratio using 100 mM Tris Phosphate buffer, pH 7.4) are obtained from Celsius In Vitro Technologies (Baltimore, Md.) that were both phenylmethylsulphonylfluoride (PMSF) and EDTA free.
# Each lot of human duodenum is obtained from a single donor and the intestine is scraped and the sections are frozen separate. All original tissue collections are performed at 4° C. and immediately frozen at −70° C. Human intestinal homogenates are thawed and diluted to a final protein concentration of 0.5 mg/mL in 100 mM PBS buffer, pH 7.4 immediately prior to the incubations.
# Incubations are conducted in 96-well plates and all prodrug compounds are run in duplicate on each day. Stock prodrug compound solutions are prepared in water at a concentration of 1 mM. A 200 μL aliquot of 0.5 mg/mL intestinal homogenate and 196 μL of 100 mM PBS buffer are placed in a 96-well plate in a 37° C. water bath. Using a 96-well pipettor, 4 μL of the 1 mM prodrug compound solution is transferred into the homogenate. Immediately after addition of the prodrug compound (time zero) and after 1 hour incubation, 50 μL samples of the incubation mixture are removed using an automated disposable simultaneous 96 well pipettor and added directly to 200 μL of methanol quench solution containing 100 ng/mL of Internal Standard. The samples are then centrifuged at 3500 rpm for 5 minutes at 10° C. The supernatant (200 μL) is transferred to a final 96 well PCR plate and sealed for analysis by LC/MS/MS.
# Concentrations of hydrolyzed compounds of the present invention in the incubation mixtures are determined using LC/MS/MS detection on a Sciex API 4000 quadrapole mass spectrometer with Analyst version 1.4.2, TurboIonSpray, positive ionization, and Selected Reaction Monitoring (SRM). A Waters Atlantis® T3 (20×2.1 mm, 5 μM) HPLC column is used at ambient temperature with a flow rate of 1.0 mL/min and a mobile phase gradient from 0.1% mobile phase A to 99% mobile phase A. Mobile phase A is 1000:5 water:heptafluorobuteric acid and mobile phase B is 1:1 methanol:glacial acetic acid.
# Concentrations of hydrolyzed compounds of the present invention in the intestinal incubation mixtures are determined from standard curves prepared by replicate two-fold dilution starting at 10 μM in 100 mM PBS pH 7.4 and subsequently quenched with methanol-internal standard solution identical to the samples. Averages and standard deviations are calculated using Microsoft® Office Excel® 2007. Amount of hydrolysis is determined as a molar percentage of compound formed relative to prodrug compound concentration added. […] Final values are then normalized relative to the formation of Internal Compound Drug A.
# [4] = mean and standard error of the mean
"inhibition at 5000 µM ([2]; 5 mM, pH 6.0, PepT1 transiently transfected HeLa cells, read-out: hPepT1 [3H]Gly-Sar uptake inhibition at 5 mM) [%]","IC50 ([2]; 0.0625 to 25 mM, PepT1 transfected HeLa cells, read-out: hPepT1 [3H]Gly-Sar uptake inhibition IC50) [mM]",human intestinal hydrolysis relative to Internal Prodrug Compound A [3] [%],Compound,"ED60 ([1]; 60 min prior to testing, single study) [mg/kg]","antidepressant-like effects ([1]; F4,39=9.9, p<0.0001)","maximal effect, % of vehicle immobility levels ([1]; at the 10 mg/kg dose, single study) [%]","ED60, mean of four separate replications [1, 4] [mg/kg]","maximal effect, % of vehicle-treated immobility levels, four separate replications [1, 4] [%]"
,,,"N[C@@]1(C(=O)O)C[C@@H](Sc2nnc[nH]2)[C@H]2[C@H](C(=O)O)[C@H]21 [Example 1, (1R,2S,4R,5R,6R)-2-Amino-4-(4H-1,2,4-triazol-3-ylsulfanyl)bicyclo[3.1.0]hexane-2,6-dicarboxylic acid]",10.5,prominent antidepressant-like effects,61,6.1 ± 2.5,49.5±11.5
38,1.84,61,"C[C@H](N)C(=O)N[C@@]1(C(=O)O)C[C@@H](Sc2nnc[nH]2)[C@H]2[C@H](C(=O)O)[C@H]21.Cl [Example 2, (1R,2S,4R,5R,6R)-2-[[(2S)-2-Aminopropanoyl]amino]-4-(1H-1,2,4-triazol-3-ylsulfanyl)bicyclo[3.1.0]hexane-2,6-dicarboxylic acid hydrochloride]",,,,,

# From patent US8318184B2, “MGLU2 agonists” (Eli Lilly and Company, priority 2009, dated 2012)
